Values of other authors in patent publication US20190175504A1, “Carbohydrate-Derivatized Liposomes for Targeting Cellular Carbohydrate Recognition Domains of Ctl/Ctld Lectins, and Intracellular Delivery of Therapeutically Active Compounds” (RODOS BioTarget GmbH, priority 2004, published 2019).

Experiments:
[1] = test system: mouse model of liver damage

| SMILES | pathologic values of liver parameters (e.g., ALT) (HCV-positive patients) | antifibrotic effect (bile duct-ligated mouse) | apoptosis in liver damage [1] |
| --- | --- | --- | --- |
| C[C@H](NC(=O)C(=O)Nc1ccccc1C(C)(C)C)C(=O)N[C@@H](CC(=O)O)C(=O)COc1c(F)c(F)cc(F)c1F [IDN-6556] | significantly reduces | proven beneficial as an antifibrotic agent |  |
| Cc1ccc(C(=O)Nc2ccc(S(=O)(=O)O)c3cc(S(=O)(=O)O)cc(S(=O)(=O)O)c23)cc1NC(=O)c1cccc(NC(=O)Nc2cccc(C(=O)Nc3cc(C(=O)Nc4ccc(S(=O)(=O)O)c5cc(S(=O)(=O)O)cc(S(=O)(=O)O)c45)ccc3C)c2)c1 [suramin] |  |  | inhibit apoptosis |
